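96-well plates; 48 h exposure; 5 concentrations. Endpoints by linear interpolation between flanking doses. Not reached: highest tested concentration assigned. Here, GI50 denotes the concentration required for 50% inhibition of growth. TGI is the concentration that stops growth completely.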
Tests used:
Assay in all cases: inhibition of tumour cell growth, NCI panel, 48 h
A549 NSCLC = test system: A549 NSCLC
HCC-2998 colon = test system: HCC-2998 colon
UACC-257 melanoma = test system: UACC-257 melanoma
CCRF-CEM leukemia = test system: CCRF-CEM leukemia
RPMI-8226 leukemia = test system: RPMI-8226 leukemia
M14 melanoma = test system: M14 melanoma
HT29 colon = test system: HT29 colon
MDA-MB-231 breast = test system: MDA-MB-231 breast
PC-3 prostate = test system: PC-3 prostate
MCF7 breast = test system: MCF7 breast

Row | Structure (SMILES) | TGI (A549 NSCLC) [µM] | TGI (HCC-2998 colon) [µM] | TGI (UACC-257 melanoma) [µM] | TGI (CCRF-CEM leukemia) [µM] | TGI (RPMI-8226 leukemia) [µM] | TGI (M14 melanoma) [µM] | TGI (HT29 colon) [µM] | GI50 (A549 NSCLC) [µM] | GI50 (HCC-2998 colon) [µM] | GI50 (UACC-257 melanoma) [µM] | GI50 (MDA-MB-231 breast) [µM] | TGI (MDA-MB-231 breast) [µM] | GI50 (CCRF-CEM leukemia) [µM] | GI50 (RPMI-8226 leukemia) [µM] | GI50 (M14 melanoma) [µM] | GI50 (PC-3 prostate) [µM] | TGI (PC-3 prostate) [µM] | GI50 (HT29 colon) [µM] | GI50 (MCF7 breast) [µM] | TGI (MCF7 breast) [µM]
1 | Cn1cnc([N+](=O)[O-])c1Sc1n[nH]c(-c2ccc(Cl)cc2)n1 | 77.8 | 40.6 | 39.6 | 39.6 | 87.7 | 33.5 | 42.5 |  |  |  |  |  |  |  |  |  |  |  |  | 
2 | ClCc1ccccc1Cn1cnc2nc(Cl)nc(Cl)c21 | 13.2 | 8.56 | 5.22 | 0.305 | 0.272 | 2.46 | > 100 | 5.29 | 3.96 | 1.6 | 0.219 | 0.642 | 0.104 | 0.0318 | 0.851 | 0.323 | 1.81 | 0.412 |  | 
3 | COC(=O)c1c2c(c(C)[n+]([O-])c1C)C(=O)C(NCc1ccccc1)=CC2=O | 7.94 | 7.98 | 4.02 | 22.3 | 10.1 | 4.35 | 10.2 | 2.47 | 2.8 | 1.7 |  |  | 2.98 | 2.61 | 1.97 |  |  | 1.97 | 1.65 | 3.73
4 | O/N=C1/CCCC/C1=C\c1ccc(Cl)c(Cl)c1 | > 100 | 75.3 |  | 59.7 |  | 82.9 | 39.9 |  |  |  |  |  |  |  |  |  |  |  |  | 
5 | NC1=NN(c2ccccc2)C(=O)C1C(=O)C(=O)Nc1ccccc1 (configuration not stated) | > 100 | > 100 | > 100 | > 100 | > 100 | > 100 | > 100 |  |  |  |  |  |  |  |  |  |  |  |  | 
6 | COc1cccc2c1C(=O)c1c(O)c3c(c(O)c1C2=O)C[C@](O)(C(=O)CO)C[C@H]3O[C@@H]1C[C@@H](NC(=O)CCCN(C)C2(c3ccc(F)cc3)CC3CCC2C3)[C@H](O)[C@@H](C)O1 (some centres not stated) |  | 1.55 | 1.73 | 3.29 | 2.23 | 1.73 | 1.92 |  | 0.826 | 0.984 | 0.771 | 1.54 | 0.927 | 0.946 | 0.925 | 1.18 | 3.11 | 0.881 |  | 
7 | COc1ccc(/C=C/c2onc3c(=O)n(C)nc(-c4ccccc4)c23)cc1 | > 100 |  |  | > 100 | > 100 | > 100 | > 100 |  |  |  |  |  |  |  |  |  |  |  |  | 
8 | CCOC(=O)C1CC(=O)C=C2CCCCC21 (configuration not stated) | > 100 | > 100 | > 100 | > 100 | > 100 | > 100 | > 100 |  |  |  |  |  |  |  |  |  |  |  |  | 
9 | CCCCCCOC(=O)CC1=C(C)/C(=C/c2[nH]c(-c3ccc[nH]3)cc2OC)N=C1C | 1.26 |  | 1.51 | 1.56 |  | 0.328 | 1.05 | 0.361 |  | 0.394 | 0.0336 | 0.626 | 0.0256 |  | 0.0342 | 0.0487 | 1.78 | 0.0331 | 0.0961 | 1.38
10 | C[C@@H]1CC[C@@]2(C)OC(c3ccccc3)[C@H](CO)N2C1=O (some centres not stated) | > 100 |  | > 100 |  | > 100 |  | > 100 |  |  |  |  |  |  |  |  |  |  |  |  | 
11 | OCC1OC(N2C=C(c3nc4ccccc4s3)C3C=CC=CC32)C(O)C(O)C1O (configuration not stated) | > 50 |  | 42.9 |  | 36.4 | > 50 | > 50 | 18.7 |  | 14.8 | 15.4 | > 50 |  | 11.4 | 15.3 | 13 | > 50 | 19 | 18.1 | > 50
12 | Cc1cc(-c2nc3sc(C)cn3c2/C=N/N=C(N)N)c(C)s1 | 48.9 | 3.24 | 44.2 | 5.06 |  | 3.11 | 20.2 | 21.5 | 1.73 | 22.2 | 3.49 | 16.3 | 2.49 |  | 1.7 | 3.65 | 15.5 | 3.74 |  | 
13 | O=CN/C=C/c1ccccc1 | > 100 | > 100 | > 100 | > 100 | > 100 | > 100 | > 100 |  |  |  |  |  |  |  |  |  | > 100 |  |  | 
14 | C=C(C)CC(C(=O)O)c1ccc(C)cc1 (configuration not stated) | > 100 |  | > 100 |  | > 100 |  | > 100 |  |  |  |  |  |  |  |  |  |  |  |  | 
15 | O=CCCn1[nH]c(=O)ccc1=O | > 100 | > 100 | > 100 | > 100 | > 100 | > 100 | > 100 |  |  |  |  |  |  |  |  |  |  |  |  | 
16 | c1cc[c]([Ge]([O]c2cccc3cccnc23)([c]2ccccc2)[c]2ccccc2)cc1 | 21.7 | 6.16 | 14.5 |  | 6.77 | 17.5 | 10.8 | 5.34 | 2.54 | 3.94 |  |  |  | 2.29 | 5.63 |  |  | 3.8 |  | 

Row | Structure (SMILES) | TGI (A549 NSCLC) [µM] | TGI (HCC-2998 colon) [µM] | TGI (UACC-257 melanoma) [µM] | TGI (CCRF-CEM leukemia) [µM] | TGI (RPMI-8226 leukemia) [µM] | TGI (M14 melanoma) [µM] | TGI (HT29 colon) [µM] | GI50 (A549 NSCLC) [µM] | GI50 (HCC-2998 colon) [µM] | GI50 (UACC-257 melanoma) [µM] | GI50 (MDA-MB-231 breast) [µM] | TGI (MDA-MB-231 breast) [µM] | GI50 (CCRF-CEM leukemia) [µM] | GI50 (RPMI-8226 leukemia) [µM] | GI50 (M14 melanoma) [µM] | GI50 (PC-3 prostate) [µM] | TGI (PC-3 prostate) [µM] | GI50 (HT29 colon) [µM] | GI50 (MCF7 breast) [µM] | TGI (MCF7 breast) [µM]
17 | COc1ccc2cc3c4cc(OC)c(OC)cc4ccn3c2c1 | > 100 | > 100 | > 100 | > 100 |  |  | > 100 |  |  |  |  |  |  |  |  |  |  |  |  | 
18 | O=C(Nc1ccc(Cl)c(C(F)(F)F)c1)Nc1ccc(-c2cccnc2)cc1N1CCC(CO)CC1 | 23.8 | 4.9 | 9.82 | > 100 |  | 4.85 | 4.02 | 3.45 | 2.31 | 3.47 | 1.92 | 4.34 | 2.9 |  | 1.93 | 1.87 | 5.37 | 1.92 | 2.2 | 6.96
19 | N#CC(Sc1ccccc1)C(N)=O (configuration not stated) | > 100 | > 100 | > 100 | > 100 | > 100 | > 100 | > 100 |  |  |  |  |  |  |  |  |  |  |  |  | 
20 | CC(=O)N1c2ccccc2N(C(C)=O)C1c1ccc(C2N(C(C)=O)c3ccccc3N2C(C)=O)[nH]1 | > 100 | > 100 | > 100 | > 100 | > 100 | > 100 | > 100 |  |  |  |  |  |  |  |  |  |  |  |  | 
21 | C[C@]12Cc3conc3C(O)=C1CC[C@@H]1C2CC[C@@]2(C)C1CC[C@@H]2O (some centres not stated) | 85.2 |  | > 100 | 55.5 | 20.4 | 50 | > 100 |  |  |  |  |  |  |  |  |  |  |  |  | 
22 | CCN1/C(=C/C(C)=C/c2sc3ccc4ccccc4c3[n+]2CC)Sc2ccc3ccccc3c21 | 0.272 |  | 0.0916 |  | 0.131 | 0.58 | 0.233 | 0.0271 |  | 0.0115 | 0.271 | 1.04 |  | < 0.0134 | 0.196 | 0.085 | 1.46 | 0.109 | 0.149 | 0.42
23 | COc1ccc(Nc2ncc(I)c(NCCCNC(=O)C3CCC3)n2)cc1 | 24.6 | 67.3 | 93 | > 100 | 53.8 | > 100 | 71 | 4.6 | 13.5 | 15 | 1.66 | 5.31 | 4.96 | 10.3 | 13.4 |  |  | 13.1 | 8.31 | > 100
24 | CCNCC(=O)Nc1ccc2c(c1)C(=O)c1ccc(NC(=O)CNCC)cc1C2=O | 14.6 | 3.75 | 18.6 | > 100 |  | 12.5 | 9.87 |  |  |  |  | 9.88 |  |  |  |  | > 100 |  |  | 5.6
25 | C=CC12CCCCC1CC(C(=O)OC)=C(O)C2 (configuration not stated) | > 100 | > 100 | > 100 | > 100 | > 100 | > 100 | > 100 |  |  |  |  |  |  |  |  |  |  |  |  | 
26 | CCCN(CCC)c1ccc(/C=N/NC(=O)c2cccnc2)c(C)c1 | 36.8 | 32.1 | 24.8 | 52.3 | 68.7 |  | 25.2 | 15.7 | 14.3 | 12.3 |  |  | 16.4 | 19.4 |  | 16.8 | 67.7 | 8.54 | 17.7 | 36.8
27 | C=CCCn1nc(-c2ccccc2)oc1=O | > 100 | > 100 | > 100 | > 100 |  | > 100 | > 100 |  |  |  |  |  |  |  |  |  |  |  |  | 
28 | COc1ccc(C)c2sc(N(Cc3cccnc3)C(=O)c3ccc(C#N)cc3)nc12 | > 100 | > 100 | > 100 | > 100 | > 100 | > 100 | > 100 | 43.6 | 46.6 | 56 | 38.2 | > 100 | 36.6 | 26.1 | 44.9 | 30.2 | > 100 | 28.5 |  | 
29 | COc1ccc(C2(Cl)C(Cl)(C(F)(F)F)C2(Cl)C(F)(F)F)cc1 (configuration not stated) | 28.1 | 29.8 | 26.5 | 33.2 | 34.8 | 24.2 | 27.8 |  |  |  |  |  |  |  |  |  |  |  |  | 
30 | Cc1nc2ccccc2c(=O)n1/N=C(\N=Nc1ccccc1)c1ccccc1Cl | > 100 | > 100 | > 100 | > 100 | > 100 | > 100 | > 100 |  |  |  |  |  |  |  |  |  |  |  |  | 
31 | O=S(O)O.O=S(O)O.[Co].[NH2-].[NH2-].[NH2-].[NH2-] | > 100 |  | > 100 |  | > 100 | > 100 | > 100 | > 100 |  | > 100 | > 100 | > 100 |  | > 100 | > 100 | > 100 | > 100 | > 100 | > 100 | > 100

From PubChem BioAssay (NCI)
